Assay results: patent publication US9051310B2, “Nicotinamide derivative or salt thereof” (FUJIFILM Corporation, priority 2011, dated 2015)

target: T1, glutathione S-transferase (GST)-linked full-length human Syk protein (Homo sapiens, UniProt P43405); test: Syk enzyme assay; type: biochemical; settings: 0.83 nM Syk, time-resolved fluorescence; read-out: IC50 of Syk-inhibitory activity
T1 construct: glutathione S-transferase (GST)-linked full-length human Syk protein; purchased Carna Biosciences; host or cells: Baculovirus expression system
Method in brief: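 Phosphotyrosine on a biotin-peptide substrate (0.5 μM) was read by time-resolved fluorescence at 615 and 665 nm with Eu-anti-pTyr antibody and APC-streptavidin after 1 h EDTA stop.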

SMILES | IC50
CC[C@@H](Nc1nc(Nc2ccc3[nH]nc(NC)c3c2)c(C(N)=O)cc1F)[C@H](C)N [Example 2-489, 6-(((2S,3R)-2-aminopentan-3-yl)amino)-5-fluoro-2-((3-(methylamino)-1H-indazol-5-yl)amino)nicotinamide] | 10 to 50 nM
CC[C@H](N)[C@@H](C)Nc1nc(Nc2ccc3[nH]nc(NC)c3c2)c(C(N)=O)cc1F [Example 2-491, 6-(((2R,3S)-3-aminopentan-2-yl)amino)-5-fluoro-2-((3-(methylamino)-1H-indazol-5-yl)amino)nicotinamide] | 10 to 50 nM
CC[C@@H](Nc1nc(Nc2ccc3[nH]nc(N(C)C)c3c2)c(C(N)=O)cc1F)[C@H](C)N [Example 2-493, 6-(((2S,3R)-2-aminopentan-3-yl)amino)-2-((3-(dimethylamino)-1H-indazol-5-yl)amino)-5-fluoronicotinamide] | < 10 nM
C[C@H](N)[C@H](Nc1nc(Nc2ccc3[nH]nc(N(C)C)c3c2)c(C(N)=O)cc1F)C1CC1 [Example 2-494, 6-(((1R,2S)-2-amino-1-cyclopropylpropyl)amino)-2-((3-(dimethylamino)-1H-indazol-5-yl)amino)-5-fluoronicotinamide] | < 10 nM
CNc1nn(C)c2ccc(Nc3nc(N[C@H](C4CC4)[C@H](C)N)c(F)cc3C(N)=O)cc12 [Example 2-498, 6-(((1R,2S)-2-amino-1-cyclopropylpropyl)amino)-5-fluoro-2-((1-methyl-3-(methylamino)-1H-indazol-5-yl)amino)nicotinamide] | < 10 nM
CC[C@H](N)[C@@H](C)Nc1nc(Nc2ccc3c(c2)c(NC)nn3C)c(C(N)=O)cc1F [Example 2-499, 6-(((2R,3S)-3-aminopentan-2-yl)amino)-5-fluoro-2-((1-methyl-3-(methylamino)-1H-indazol-5-yl)amino)nicotinamide] | 10 to 50 nM
COCCn1nc(N(C)C)c2cc(Nc3nc(N[C@@H]4CCCC[C@@H]4N)c(F)cc3C(N)=O)ccc21 [Example 2-500, 6-(((1R,2S)-2-aminocyclohexyl)amino)-2-((3-(dimethylamino)-1-(2-methoxyethyl)-1H-indazol-5-yl)amino)-5-fluoronicotinamide] | 10 to 50 nM
COCCn1nc(N(C)C)c2cc(Nc3nc(N[C@H](C4CCC4)[C@H](C)N)c(F)cc3C(N)=O)ccc21 [Example 2-506, 6-(((1R,2S)-2-amino-1-cyclobutylpropyl)amino)-2-((3-(dimethylamino)-1-(2-methoxyethyl)-1H-indazol-5-yl)amino)-5-fluoronicotinamide] | 10 to 50 nM
CC[C@H](N)[C@@H](C)Nc1nc(Nc2ccc3c(c2)c(N(C)C)nn3CCOC)c(C(N)=O)cc1F [Example 2-507, 6-(((2R,3S)-3-aminopentan-2-yl)amino)-2-((3-(dimethylamino)-1-(2-methoxyethyl)-1H-indazol-5-yl)amino)-5-fluoronicotinamide] | 50 to 100 nM
C[C@H](N)[C@H](Nc1nc(Nc2ccc3c(c2)c(N(C)C)nn3C)c(C(N)=O)cc1F)c1cccs1 [Example 2-510, 6-(((1S,2S)-2-amino-1-(thiophen-2-yl)propyl)amino)-2-((3-(dimethylamino)-1-methyl-1H-indazol-5-yl)amino)-5-fluoronicotinamide] | < 10 nM
C[C@H](N)[C@H](Nc1nc(Nc2cnc(N3CCOCC3)c(F)c2)c(C(N)=O)cc1F)c1ccc(Cl)s1 [Example 2-511, 6-(((1S,2S)-2-amino-1-(5-chlorothiophen-2-yl)propyl)amino)-5-fluoro-2-((5-fluoro-6-morpholinopyridin-3-yl)amino)nicotinamide] | 10 to 50 nM
C[C@H](N)[C@H](Nc1nc(Nc2cnc(N3CCOCC3)c(F)c2)c(C(N)=O)cc1F)c1ccccc1F [Example 2-513, 6-(((1R,2S)-2-amino-1-(2-fluorophenyl)propyl)amino)-5-fluoro-2-((5-fluoro-6-morpholinopyridin-3-yl)amino)nicotinamide] | 10 to 50 nM
Cc1cnn(-c2cncc(Nc3nc(N[C@H](CC(C)C)[C@H](C)N)c(F)cc3C(N)=O)c2)c1 [Example 2-525, 6-(((2S,3R)-2-amino-5-methylhexan-3-yl)amino)-5-fluoro-2-((5-(4-methyl-1H-pyrazol-1-yl)pyridin-3-yl)amino)nicotinamide] | < 10 nM

Now from value to molecule:

IC50 | SMILES
< 10 nM | CNc1n[nH]c2ccc(Nc3nc(N[C@@H]4CCCC[C@@H]4N)c(F)cc3C(N)=O)cc12 [Example 2-488, 6-(((1R,2S)-2-aminocyclohexyl)amino)-5-fluoro-2-((3-(methylamino)-1H-indazol-5-yl)amino)nicotinamide]
10 to 50 nM | CNc1n[nH]c2ccc(Nc3nc(N[C@H](C4CC4)[C@H](C)N)c(F)cc3C(N)=O)cc12 [Example 2-490, 6-(((1R,2S)-2-amino-1-cyclopropylpropyl)amino)-5-fluoro-2-((3-(methylamino)-1H-indazol-5-yl)amino)nicotinamide]
< 10 nM | CN(C)c1n[nH]c2ccc(Nc3nc(N[C@@H]4CCCC[C@@H]4N)c(F)cc3C(N)=O)cc12 [Example 2-492, 6-(((1R,2S)-2-aminocyclohexyl)amino)-2-((3-(dimethylamino)-1H-indazol-5-yl)amino)-5-fluoronicotinamide]
< 10 nM | CC[C@H](N)[C@@H](C)Nc1nc(Nc2ccc3[nH]nc(N(C)C)c3c2)c(C(N)=O)cc1F [Example 2-495, 6-(((2R,3S)-3-aminopentan-2-yl)amino)-2-((3-(dimethylamino)-1H-indazol-5-yl)amino)-5-fluoronicotinamide]
50 to 100 nM | CC[C@@H](Nc1nc(Nc2ccc3c(c2)c(NC)nn3C)c(C(N)=O)cc1F)[C@H](C)N [Example 2-497, 6-(((2S,3R)-2-aminopentan-3-yl)amino)-5-fluoro-2-((1-methyl-3-(methylamino)-1H-indazol-5-yl)amino)nicotinamide]
10 to 50 nM | COCCn1nc(N(C)C)c2cc(Nc3nc(N[C@@H]4CCOC[C@@H]4N)c(F)cc3C(N)=O)ccc21 [Example 2-501, 6-(((3R,4R)-3-aminotetrahydro-2H-pyran-4-yl)amino)-2-((3-(dimethylamino)-1-(2-methoxyethyl)-1H-indazol-5-yl)amino)-5-fluoronicotinamide]
10 to 50 nM | CC[C@@H](Nc1nc(Nc2ccc3c(c2)c(N(C)C)nn3CCOC)c(C(N)=O)cc1F)[C@H](C)N [Example 2-502, 6-(((2S,3R)-2-aminopentan-3-yl)amino)-2-((3-(dimethylamino)-1-(2-methoxyethyl)-1H-indazol-5-yl)amino)-5-fluoronicotinamide]
10 to 50 nM | CCC[C@@H](Nc1nc(Nc2ccc3c(c2)c(N(C)C)nn3CCOC)c(C(N)=O)cc1F)[C@H](C)N [Example 2-503, 6-(((2S,3R)-2-aminohexan-3-yl)amino)-2-((3-(dimethylamino)-1-(2-methoxyethyl)-1H-indazol-5-yl)amino)-5-fluoronicotinamide]
10 to 50 nM | COCCn1nc(N(C)C)c2cc(Nc3nc(N[C@H](C4CC4)[C@H](C)N)c(F)cc3C(N)=O)ccc21 [Example 2-504]
10 to 50 nM | COCCn1nc(N(C)C)c2cc(Nc3nc(N[C@H](CC(C)C)[C@H](C)N)c(F)cc3C(N)=O)ccc21 [Example 2-505, 6-(((2S,3R)-2-amino-5-methylhexan-3-yl)amino)-2-((3-(dimethylamino)-1-(2-methoxyethyl)-1H-indazol-5-yl)amino)-5-fluoronicotinamide]
< 10 nM | CCn1ncc2c(Nc3nc(N[C@H](c4cccs4)[C@H](C)N)c(F)cc3C(N)=O)cccc21 [Example 2-509, 6-(((1S,2S)-2-amino-1-(thiophen-2-yl)propyl)amino)-2-((1-ethyl-1H-indazol-4-yl)amino)-5-fluoronicotinamide]
< 10 nM | CCn1ncc2c(Nc3nc(N[C@H](c4ccc(Cl)s4)[C@H](C)N)c(F)cc3C(N)=O)cccc21 [Example 2-512, 6-(((1S,2S)-2-amino-1-(5-chlorothiophen-2-yl)propyl)amino)-2-((1-ethyl-1H-indazol-4-yl)amino)-5-fluoronicotinamide]
< 10 nM | CCn1ncc2c(Nc3nc(N[C@H](c4ccccc4F)[C@H](C)N)c(F)cc3C(N)=O)cccc21 [Example 2-514, 6-(((1R,2S)-2-amino-1-(2-fluorophenyl)propyl)amino)-2-((1-ethyhl-1H-indazol-4-yl)amino)-5-fluoronicotinamide]
10 to 50 nM | COc1ncc(Nc2nc(N[C@@H]3CCCC[C@@H]3N)c(F)cc2C(N)=O)cc1C(C)=O [Example 2-515, 2-((5-acetyl-6-methoxypyridin-3-yl)amino)-6-(((1R,2S)-2-aminocyclohexyl)amino)-5-fluoronicotinamide]
< 10 nM | C[C@H](N)[C@H](Nc1nc(Nc2cncc(-n3cc(Cl)cn3)c2)c(C(N)=O)cc1F)C1CC1 [Example 2-520, 6-(((1R,2S)-2-amino-1-cyclopropylpropyl)amino)-2-((5-(4-chloro-1H-pyrazol-1-yl)pyridin-3-yl)amino)-5-fluoronicotinamide]
< 10 nM | Cc1cnn(-c2cncc(Nc3nc(N[C@H](C4CCC4)[C@H](C)N)c(F)cc3C(N)=O)c2)c1 [Example 2-523, 6-(((1R,2S)-2-amino-1-cyclobutylpropyl)amino)-5-fluoro-2-((5-(4-methyl-1H-pyrazol-1-yl)pyridin-3-yl)amino)nicotinamide]
< 10 nM | Cc1cnn(-c2cncc(Nc3nc(N[C@@H](CN)CC(C)C)c(F)cc3C(N)=O)c2)c1 [Example 2-524, (R)-6-((1-amino-4-methylpentan-2-yl)amino)-5-fluoro-2-((5-(4-methyl-1H-pyrazol-1-yl)pyridin-3-yl)amino)nicotinamide]
< 10 nM | Cc1cnn(-c2cncc(Nc3nc(N[C@@H]4CCOC[C@@H]4N)c(F)cc3C(N)=O)c2)c1 [Example 2-526, 6-(((3R,4R)-3-aminotetrahydro-2H-pyran-4-yl)amino)-5-fluoro-2-((5-(4-methyl-1H-pyrazol-1-yl)pyridin-3-yl)amino)nicotinamide]
